From patent US9089603B2, “Fluorescent imaging with substituted cyanine dyes” (LI-COR, INC., priority 2010, dated 2015)

Experiments:
[1] = Comparison of dye emission maxima and quenching; assay type: physicochemical; conditions: IRDye 800CW samples, excitation 770 nm; for Peak fluorescence emission intensity: PBS pH 7.4; for Percent Quenching: versus dye-linker standard
Description: Solutions of dye-linker standards and dye-linker-quencher samples were diluted into PBS buffer (pH 7.4) to give a dye-specific absorbance less than 0.2 AU. The fluorescence spectra of each dilution were then taken at a consistent excitation wavelength (670 nm for HETD and 770 nm for IRDye 800CW). The emission spectra were collected from 680-1000 nm for the HETD samples and 780-1000 nm for the IRDye 800CW samples.

[2] = Absorption wavelength of the cyanine dyes in methanol (halo substitution effect); assay type: physicochemical
Excerpt: [table] Design Principle: We analyzed the properties of a dye scaffold and related compounds and the corresponding substitution effects on the excitation and emission wavelengths. The small size of fluorine is unlikely to produce steric effects, therefore, we explored the electronic effects of fluorine and related substitutions. The Hammett equation (σ-value) is an important tool to understand the electronic effects of the substituents, therefore, we explored the correlation of the wavelength (λMeOH) and the σ-value (vide infra): […]

[3] = In vivo clearance imaging in nude mice (Pearl Impulse); conditions: 1 nmole; for Total (signal): 800 channel
Description: Two nude mice were injected with 1 nmole of either compound 16 or IRDye 800CW carboxylate. They were then imaged longitudinally over the next 24 h with the Pearl Impulse imaging system. The results are presented in FIG. 9: in vivo clearance in nudes (FIG. 9A), whole body dorsal views (FIG. 9B), and the rate of clearance (FIG. 9C). The clearance data is presented below in Table 4.

[4] = Photophysical properties (absorption, emission, fluorescence intensity, quantum yield) versus IRDye 800CW; assay type: physicochemical

| Compound | λMeOH ([2]; Table 2) [nm] | λMeOH ([2]; Table 5) [nm] | also measured |
| --- | --- | --- | --- |
| CC1(C)C(/C=C/C2=C(Oc3ccc(S(=O)(=O)[O-])cc3)C(=C/C=C3/N(CCCCS(=O)(=O)[O-])c4ccc(S(=O)(=O)[O-])cc4C3(C)C)/CCC2)=[N+](CCCCCC(=O)NCCCOCCOCCOCCCNC(=O)CCCCC[N+]2=C(/C=C/C3=C(c4ccccc4F)C(=C/C=C4/N(CCCS(=O)(=O)[O-])c5ccc(N(CCCS(=O)(=O)[O-])CCCS(=O)(=O)[O-])cc5C4(C)C)/CCC3)C(C)(C)c3c2ccc2cc(S(=O)(=O)[O-])ccc32)c2ccc(S(=O)(=O)[O-])cc21.[Na+].[Na+].[Na+].[Na+].[Na+].[Na+] [Compound 38] |  |  | Peak fluorescence emission intensity [1]: 385983; Percent Quenching [1]: 71.3% |
| CC1(C)C(/C=C/C2=C(c3c(F)cc(F)cc3F)C(=C/C=C3/N(CCCCS(=O)(=O)[O-])c4ccc(S(=O)(=O)[O-])cc4C3(C)C)/CCC2)=[N+](CCCCS(=O)(=O)[O-])c2ccc(S(=O)(=O)[O-])cc21.[Na+].[Na+].[Na+] [Compound 14] | 785 |  |  |
| CCCCOc1c(F)cc(F)c(C2=C(/C=C/C3=[N+](CCCCCC(=O)O)c4ccc(S(=O)(=O)[O-])cc4C3(C)C)CCC/C2=C\C=C2\N(CCCCS(=O)(=O)[O-])c3ccc(S(=O)(=O)[O-])cc3C2(C)C)c1F.[Na+].[Na+] |  | 789 |  |
| CCCCOc1ccc(F)c(C2=C(/C=C/C3=[N+](CCCCCC(=O)O)c4ccc(S(=O)(=O)[O-])cc4C3(C)C)CCC/C2=C\C=C2\N(CCCCS(=O)(=O)[O-])c3ccc(S(=O)(=O)[O-])cc3C2(C)C)c1F.[Na+].[Na+] |  | 779 |  |
| CC1(C)C(/C=C/C2=C(c3ccccc3F)C(=C/C=C3/N(CCCCS(=O)(=O)[O-])c4ccc(S(=O)(=O)[O-])cc4C3(C)C)/CCC2)=[N+](CCCCS(=O)(=O)[O-])c2ccc(S(=O)(=O)[O-])cc21.[Na+].[Na+].[Na+] [Compound 12] | 772 |  |  |
| CC1(C)C(/C=C/C2=C(Oc3ccc(S(=O)(=O)[O-])cc3)C(=C/C=C3/N(CCCCS(=O)(=O)[O-])c4ccc(S(=O)(=O)[O-])cc4C3(C)C)/CCC2)=[N+](CCCCCC(=O)NCCOCCOCCOCCOCCOCCOCCOCCOCCOCCOCCOCCNC(=O)CCCCC[N+]2=C(/C=C/C3=C(c4ccccc4F)C(=C/C=C4/N(CCCS(=O)(=O)[O-])c5ccc(N(CCCS(=O)(=O)[O-])CCCS(=O)(=O)[O-])cc5C4(C)C)/CCC3)C(C)(C)c3c2ccc2cc(S(=O)(=O)[O-])ccc32)c2ccc(S(=O)(=O)[O-])cc21.[Na+].[Na+].[Na+].[Na+].[Na+].[Na+] [Compound 39] |  |  | Peak fluorescence emission intensity [1]: 438981; Percent Quenching [1]: 65.5% |
| CCCCOc1c(F)c(F)c(C2=C(/C=C/C3=[N+](CCCCCC(=O)O)c4ccc(S(=O)(=O)[O-])cc4C3(C)C)CCC/C2=C\C=C2\N(CCCCS(=O)(=O)[O-])c3ccc(S(=O)(=O)[O-])cc3C2(C)C)c(F)c1F.[Na+].[Na+] |  | 790 |  |
| CC1(C)C(/C=C/C2=C(c3c(F)cccc3F)C(=C/C=C3/N(CCCCS(=O)(=O)[O-])c4ccc(S(=O)(=O)[O-])cc4C3(C)C)/CCC2)=[N+](CCCCS(=O)(=O)[O-])c2ccc(S(=O)(=O)[O-])cc21.[Na+].[Na+].[Na+] [Compound 13] | 782 |  |  |
| IRDye 800CW carboxylate [reference compound] |  |  | Total (signal) ([3]; 3 Min): 114295.49; Total (signal) ([3]; 19 Min): 306555.97; Total (signal) ([3]; 47 Min): 291381.69; Total (signal) ([3]; 74 Min): 272408.13; Total (signal) ([3]; 192 Min): 154950.09; Total (signal) ([3]; 278 Min): 102698.54; Total (signal) ([3]; 1439 Min): 2336.87; Clearance in vivo ([3]; nude mice, imaged over 24 h): good clearance |
| CC1(C)C(/C=C/C2=C(c3cccc(F)c3F)C(=C/C=C3/N(CCCCS(=O)(=O)[O-])c4ccc(S(=O)(=O)[O-])cc4C3(C)C)/CCC2)=[N+](CCCCS(=O)(=O)[O-])c2ccc(S(=O)(=O)[O-])cc21.[Na+].[Na+].[Na+] [Compound 62k] |  |  | Fl Intensity of X / Fl Intensity of 800 CW, Odyssey ([4]; 0.1 μM solutions in 1XPBS, Odyssey): 104%; Fl Intensity of X / Fl Intensity of 800 CW, Fluorimeter ([4]; 0.1 μM solutions in 1XPBS, fluorimeter): 100%; Quantum Yield ([4]; Stnd = IRDye 800CW (QY = 0.07)): 0.060; Abs Max PBS ([4]; in PBS): 773 nm; EmMax PBS ([4]; in PBS): 790 nm; Abs Max Methanol ([4]; in methanol): 781 nm |
| CC1(C)C(/C=C/C2=C(c3c(F)cc(C(=O)O)cc3F)C(=C/C=C3/N(CCCCS(=O)(=O)[O-])c4ccc(S(=O)(=O)[O-])cc4C3(C)C)/CCC2)=[N+](CCCCCC(=O)O)c2ccc(S(=O)(=O)[O-])cc21.[Na+].[Na+] |  | 782 |  |
| CC1(C)C(/C=C/C2=C(c3c(F)cccc3F)C(=C/C=C3/N(CCCCS(=O)(=O)[O-])c4ccc(S(=O)(=O)[O-])cc4C3(C)C)/CCC2)=[N+](CCCCCC(=O)O)c2ccc(S(=O)(=O)[O-])cc21.[Na+].[Na+] |  | 782 |  |
| CC1(C)C(/C=C/C2=C(c3cccc(CCCCC(=O)O)c3)C(=C/C=C3/N(CCCCS(=O)(=O)[O-])c4ccc(S(=O)(=O)[O-])cc4C3(C)C)/CCC2)=[N+](CCCCS(=O)(=O)[O-])c2ccc(S(=O)(=O)[O-])cc21.[Na+].[Na+].[Na+] [Compound 11] | 766 |  |  |
| CC1(C)C(/C=C/C2=C(c3ccccc3F)C(=C/C=C3/N(CCCCS(=O)(=O)[O-])c4ccc(S(=O)(=O)[O-])cc4C3(C)C)/CCC2)=[N+](CCCCCC(=O)O)c2ccc(S(=O)(=O)[O-])cc21.[Na+].[Na+] |  | 772 |  |
| CC1(C)C(/C=C/C2=C(c3c(F)cc(F)cc3F)C(=C/C=C3/N(CCCCS(=O)(=O)[O-])c4ccc(S(=O)(=O)[O-])cc4C3(C)C)/CCC2)=[N+](CCCCCC(=O)O)c2ccc(S(=O)(=O)[O-])cc21.[Na+].[Na+] |  | 785 |  |
| CC1(C)C(/C=C/C2=C(c3c(Cl)cccc3Cl)C(=C/C=C3/N(CCCCS(=O)(=O)[O-])c4ccc(S(=O)(=O)[O-])cc4C3(C)C)/CCC2)=[N+](CCCCCC(=O)O)c2ccc(S(=O)(=O)[O-])cc21.[Na+].[Na+] |  | 782 |  |
| CCCCOc1c(F)c(F)c(C2=C(/C=C/C3=[N+](CCCCS(=O)(=O)[O-])c4ccc(S(=O)(=O)[O-])cc4C3(C)C)CCC/C2=C\C=C2\N(CCCCS(=O)(=O)[O-])c3ccc(S(=O)(=O)[O-])cc3C2(C)C)c(F)c1F.[Na+].[Na+].[Na+] [Compound 24] | 790 |  |  |
| COc1cc(F)c(C2=C(/C=C/C3=[N+](CCCCCC(=O)O)c4ccc(S(=O)(=O)[O-])cc4C3(C)C)CCC/C2=C\C=C2\N(CCCCS(=O)(=O)[O-])c3ccc(S(=O)(=O)[O-])cc3C2(C)C)c(F)c1.[Na+].[Na+] |  | 772 |  |

Second part, led by results:

| λMeOH ([2]; Table 2) [nm] | λMeOH ([2]; Table 5) [nm] | Compound | also measured |
| --- | --- | --- | --- |
| 782 |  | CC1(C)C(/C=C/C2=C(c3c(Cl)cccc3Cl)C(=C/C=C3/N(CCCS(=O)(=O)[O-])c4ccc(S(=O)(=O)[O-])cc4C3(C)C)/CC(C(=O)O)C2)=[N+](CCCS(=O)(=O)[O-])c2ccc(S(=O)(=O)[O-])cc21.[Na+].[Na+].[Na+] (centres unmarked) [Compound 15] |  |
| 773 |  | CC1(C)C(/C=C/C2=C(c3ccc(C(=O)NCCCCCC(=O)O)c(F)c3F)C(=C/C=C3/N(CCCCS(=O)(=O)[O-])c4ccc(S(=O)(=O)[O-])cc4C3(C)C)/CCC2)=[N+](CCCCS(=O)(=O)[O-])c2ccc(S(=O)(=O)[O-])cc21.[Na+].[Na+].[Na+] [Compound 66] |  |
| 770 |  | CC1(C)C(/C=C/C2=C(c3cccc(F)c3F)C(=C/C=C3/N(CCCCS(=O)(=O)[O-])c4ccc(S(=O)(=O)[O-])cc4C3(C)C)/CC(C(=O)O)C2)=[N+](CCCCS(=O)(=O)[O-])c2ccc(S(=O)(=O)[O-])cc21.[Na+].[Na+].[Na+] (centres unmarked) [Compound 63a] |  |
| 783 |  | CCCCOc1ccc(F)c(C2=C(/C=C/C3=[N+](CCCCS(=O)(=O)[O-])c4ccc(S(=O)(=O)[O-])cc4C3(C)C)CCC/C2=C\C=C2\N(CCCCS(=O)(=O)[O-])c3ccc(S(=O)(=O)[O-])cc3C2(C)C)c1F.[Na+].[Na+].[Na+] [Compound 22] |  |
| 772 |  | CC1(C)C(/C=C/C2=C(c3ccc(C(=O)O)c(F)c3F)C(=C/C=C3/N(CCCCS(=O)(=O)[O-])c4ccc(S(=O)(=O)[O-])cc4C3(C)C)/CCC2)=[N+](CCCCS(=O)(=O)[O-])c2ccc(S(=O)(=O)[O-])cc21.[Na+].[Na+].[Na+] [Compound 64] |  |
| 789 |  | CCCCOc1c(F)cc(F)c(C2=C(/C=C/C3=[N+](CCCCS(=O)(=O)[O-])c4ccc(S(=O)(=O)[O-])cc4C3(C)C)CCC/C2=C\C=C2\N(CCCCS(=O)(=O)[O-])c3ccc(S(=O)(=O)[O-])cc3C2(C)C)c1F.[Na+].[Na+].[Na+] [Compound 23] |  |
| 782 |  | CC1(C)C(/C=C/C2=C(c3c(F)cc(C(=O)O)cc3F)C(=C/C=C3/N(CCCCS(=O)(=O)[O-])c4ccc(S(=O)(=O)[O-])cc4C3(C)C)/CCC2)=[N+](CCCCS(=O)(=O)[O-])c2ccc(S(=O)(=O)[O-])cc21.[Na+].[Na+].[Na+] [Compound 26] |  |
| 776 |  | CC1(C)C(/C=C/C2=C(c3ccc(CCC(=O)O)c(F)c3F)C(=C/C=C3/N(CCCCS(=O)(=O)[O-])c4ccc(S(=O)(=O)[O-])cc4C3(C)C)/CCC2)=[N+](CCCCS(=O)(=O)[O-])c2ccc(S(=O)(=O)[O-])cc21.[Na+].[Na+].[Na+] [Compound 65] |  |
| 783 |  | COc1cc(F)c(C2=C(/C=C/C3=[N+](CCCCS(=O)(=O)[O-])c4ccc(S(=O)(=O)[O-])cc4C3(C)C)CCC/C2=C\C=C2\N(CCCCS(=O)(=O)[O-])c3ccc(S(=O)(=O)[O-])cc3C2(C)C)c(F)c1.[Na+].[Na+].[Na+] [Compound 21] |  |
